The source of these data is US4282247A, “5-(2-Hydroxy-3-thiopropoxy) chromone-2-carboxylic acids chemical process and pharmaceutical compositions” (CM Industries, priority 1979, dated 1981).

Counter-ions that a name gives are not always drawn. Like-named read-outs stand apart in the source and are kept apart here.

A word on the LD50: it is the dose at which mortality reaches 50%. A low value points to greater toxicity. As usually defined, the ED50 is the dose at which the effect has come halfway, by size or by number of responders.

One data set in a line: LD50 mouse, os. To be noted: in vivo, po.
Data set [1] concerns passive cutaneous anaphylaxis. As to the kind of experiment: Inhibition of passive cutaneous anaphylaxis in rats (oral), % versus controls. The class given is in vivo. To be noted: rat, os. As to the method: The 5-(2-hydroxy-3-thiopropoxy)chromone-2-carboxylic acids, their salts and their esters have been tested in rats by oral route to evaluate their ability to inhibit passive cutaneous anaphylaxis in animals sensitized to egg albumin and Bordetella pertussis.
The percentages of inhibition, in comparison with the controls, of the allergic reaction induced by passive cutaneous anaphylaxis in rats treated with 0.1 ml of an homologous antiserum diluted 1/10 and injected by intradermal route, are summarized in table I.

Data set [2] has as its system passive cutaneous anaphylaxis. As to the kind of experiment: ED50 for inhibition of passive cutaneous anaphylaxis in rats sensitized to egg albumin and Bordetella pertussis, oral and intravenous. The class given is in vivo. To be noted: Table IV, rat. The source says:
The ability of the 5-(2-hydroxy-3-thiopropoxy) chromone-2-carboxylic acids of the present invention and of the salts and esters thereof of inhibiting--by oral as well as by intravenous route--the passive cutaneous anaphylaxis in rats sensitized to egg albumin and Bordetella pertussis has been compared to that of two reference compounds: […]

The mark [3] stands for this setting: po, Table I, °° significant P ≤ 0.01, read-out: Δ % in comparison with controls (inhibition of passive cutaneous anaphylaxis).
Where [4] appears, read: po, Table I, °° P ≤ 0.01, ° P ≤ 0.05 (product B), read-out: Δ % in comparison with controls (inhibition of passive cutaneous anaphylaxis).
[5] abbreviates: po, Table III, 10 mg/kg, °° P ≤ 0.01, * non significant (product D), read-out: Δ % in comparison with controls (inhibition of passive cutaneous anaphylaxis).
The mark [6] stands for this setting: po, Table III, °° P ≤ 0.01, * non significant (product D), read-out: Δ % in comparison with controls (inhibition of passive cutaneous anaphylaxis).

`CCCCSCC(O)COc1cccc2oc(C(=O)OCC)cc(=O)c12` (stereo not shown) [CM 57193, Ethyl 5-(2-hydroxy-3-butylthiopropoxy)chromone-2-carboxylate] returned a median lethal dose (LD50) in “LD50 mouse, os” of more than 1000 mg/kg. Besides, the change in vivo at 50 mg/kg in data set [1] (setting [3]) is -47.6%. For the same molecule, the change in vivo at 100 mg/kg in data set [1] (setting [4]) was -70.8%.
Turning to `CCCCSCC(O)COc1cccc2oc(C(=O)O)cc(=O)c12.O` (stereo not shown) [CM 57194, 5-(2-hydroxy-3-butylthiopropoxy)chromone-2-carboxylic acid monohydrate], the LD50 in “LD50 mouse, os” is more than 1000 mg/kg. In addition, in data set [1] (setting [4]), the change in vivo at 100 mg/kg is -55.4%.
`CCOC(=O)c1cc(=O)c2c(OCC(O)CSC)cccc2o1` (stereo not shown) [CM 57201, ethyl 5-(2-hydroxy-3-methylthiopropoxy)chromone-2-carboxylate] came in with an LD50 in the data set “LD50 mouse, os” of more than 1000 mg/kg. Moreover, the ED50 in data set [2] (i.v., read-out: ED50) was 0.11 mg/kg; in data set [2] (po, os, read-out: ED50), 5.39 mg/kg. Also, the “Δ % in comparison with controls (inhibition of passive cutaneous anaphylaxis)” value in data set [1] (Table II, 10 mg/kg, °° P ≤ 0.01, * non significant (product C)) is -65.55%. For the same molecule, the change in vivo at 10 mg/kg in data set [1] (po, Table I, 10 mg/kg, °° significant P ≤ 0.01, read-out: Δ % in comparison with controls (inhibition of passive cutaneous anaphylaxis)) is -65.5%. Besides, the change in vivo at 100 mg/kg in data set [1] (setting [4]) was -75.1%.
Consider `CSCC(O)COc1cccc2oc(C(=O)O)cc(=O)c12` (stereo not shown) [CM 57202, 5-(2-hydroxy-3-methylthiopropoxy)chromone-2-carboxylic acid], for which the median effective dose (ED50) in data set [2] (i.v., read-out: ED50) stood at 0.13 mg/kg; in data set [2] (po, os, read-out: ED50) it was 38.1 mg/kg. Moreover, in data set [1] (setting [5]), the change in vivo at 10 mg/kg is -53%. Besides, in data set [1] (setting [6]), the change in vivo at 100 mg/kg was -70.4%.
In the data set “LD50 mouse, os”, `CCOC(=O)c1cc(=O)c2c(OCC(O)CSC(C)C)cccc2o1` (stereo not shown) [CM 57215, Ethyl 5-(2-hydroxy-3-isopropylthiopropoxy)chromone-2-carboxylate] returned a median lethal dose (LD50) of more than 1000 mg/kg. For the same molecule, the change in vivo at 100 mg/kg in data set [1] (setting [4]) was -75%.
In “LD50 mouse, os”, `CCOC(=O)c1cc(=O)c2c(OCC(O)CSCC)cccc2o1` (stereo not shown) [CM 57249, Ethyl 5-(2-hydroxy-3-ethylthiopropoxy)chromone-2-carboxylate] had an LD50 of more than 1000 mg/kg. Further, in data set [1] (setting [3]), the change in vivo at 50 mg/kg is -73%. In addition, in data set [1] (setting [4]), the change in vivo at 100 mg/kg was -75.8%.
In turn, `CCCSCC(O)COc1cccc2oc(C(=O)OCC)cc(=O)c12` (stereo not shown) [CM 57251, Ethyl 5-(2-hydroxy-3-propylthiopropoxy)chromone-2-carboxylate] returned an LD50 in “LD50 mouse, os” of more than 1000 mg/kg. Besides, the change in vivo at 100 mg/kg in data set [1] (setting [4]) is -69.1%.
`O=C(O)c1cc(=O)c2c(OCC(O)COc3cccc4oc(C(=O)O)cc(=O)c34)cccc2o1` [Product E, 1,3-bis-(2-carboxy-5-chromonyloxy)propane-2-ol sodium salt, reference compound]: the ED50 is 1.15 mg/kg in data set [2] (i.v., read-out: ED50) and “inactive” in data set [2] (os).
In the case of `N#Cc1ccc(OCC(O)COc2cccc3oc(C(=O)O)cc(=O)c23)cc1` (stereo not shown) [Product F, 5-(2-hydroxy-3-p-cyanophenoxypropoxy)chromone-2-carboxylic acid, reference compound], the ED50 in data set [2] (i.v., read-out: ED50) is 0.29 mg/kg; in data set [2] (os), “inactive”.
`O=C(O)c1ccc2oc3ccc(OCCO)cc3c(=O)c2c1` [product A, 7-(2-hydroxyethoxy)-9-oxoxanthene-2-carboxylic acid, reference compound]: in the data set “LD50 mouse, os”, the LD50 was approximately 1000 mg/kg. Besides, the change in vivo at 100 mg/kg in data set [1] (setting [4]) was -66.2%.
Take `CC(=O)c1ccc(O)c(C(=O)O)c1` [product B, 5-acetylsalicylic acid, reference compound]: the LD50 in “LD50 mouse, os” is approximately 1000 mg/kg. Further, the change in vivo at 100 mg/kg in data set [1] (setting [4]) is -29.2%.
Consider `CCOC(=O)c1cc(=O)c2c(OCC(O)COC)cccc2o1` (stereo not shown) [product C, ethyl 5-(2-hydroxy-3-methoxypropoxy)chromone-2-carboxylate, reference compound], for which the change in vivo at 10 mg/kg in data set [1] (po, Table II, 10 mg/kg, °° P ≤ 0.01, * non significant (product C), read-out: Δ % in comparison with controls (inhibition of passive cutaneous anaphylaxis)) worked out at 8.71%.
Regarding `CSCC(O)COc1ccc2c(=O)cc(C(=O)O)oc2c1` (stereo not shown) [product D, 7-(2-hydroxy-3-methylthiopropoxy)chromone-2-carboxylic acid, reference compound], the change in vivo at 10 mg/kg in data set [1] (setting [5]) stood at 17.8%. Besides, in data set [1] (setting [6]), the change in vivo at 100 mg/kg is -16.2%. In addition, in data set [1] (po, Table III, 200 mg/kg, ° significant P ≤ 0.05, read-out: Δ % in comparison with controls (inhibition of passive cutaneous anaphylaxis)), the change in vivo at 200 mg/kg was -30.1%.
